Measurements taken from patent US20260250320A1, “LIPIDATED PEPTIDE INHIBITORS OF INTERLEUKIN-23 RECEPTOR” (Janssen Pharmaceutica NV, priority 2023, published 2026).
*1 amine or outer side, *2 acyl side, *3 side chain or, on linkers, in order; H or OH if unused. Where a SMILES comes first, the peptide text is derived from it. Bridges are numbered along the chain shown (N, C = ends). Side-chain parts run from the residue outwards. [ ]: non-standard residue; d: D form. The star is where a group is joined. Me3N+(CH2)2O(CH2)2O(CH2)2CO = C[N+](C)(C)CCOCCOCCC(=O)*; PEG12 = NCCOCCOCCOCCOCCOCCOCCOCCOCCOCCOCCOCCOCCC(=O)O; CH2CH2OCH2CH2OCH2CH2NMe3+ = C[N+](C)(C)CCOCCOCC*; Trp(7-Me) = Cc1cccc2c(C[C@H](N)C(=O)O)c[nH]c12; C20 diacid = O=C(O)CCCCCCCCCCCCCCCCCCC(=O)*; Abu(4-yl) = O=C([C@H](CC[*:3])N[*:1])[*:2]; C18 diacid = O=C(O)CCCCCCCCCCCCCCCCC(=O)*; γGlu = O=C(O)[C@H](CCC(=O)[*:2])N[*:1]; 2Nal = N[C@@H](Cc1ccc2ccccc2c1)C(=O)O; AEF = NCCOc1ccc(C[C@H](N)C(=O)O)cc1; X2 = C[N+](C)(C)C[C@@H](CC(=O)O)N*; 3Pal = N[C@@H](Cc1cccnc1)C(=O)O; Lys(Me) = CNCCCC[C@H](N)C(=O)O; NMeK = CN[C@@H](CCCCN)C(=O)O; Pen = CC(C)(S)[C@H](N)C(=O)O; Suc = O=C(CCC(=O)[*:2])[*:1]; Lauroyl = CCCCCCCCCCCC(=O)*; αMeC = C[C@](N)(CS)C(=O)O; Thp = NC1(C(=O)O)CCOCC1; X1 = C[N+](C)(C)CCCCC*; AEEA = NCCOCCOCC(=O)O; Sar = CNCC(=O)O

molecular target: T1, IL-23R (Homo sapiens, UniProt Q5VWK5); assay: IL23R Reporter Assay; assay type: cell-based; details: HEK293 cells containing IL-23R, IL-12Rβ1 and STAT-inducible firefly luciferase reporter; 10 ng/mL IL-23 (EC90); 5 h
T1 construct: HEK293 cells containing IL-23R, IL-12Rβ1 and a firefly luciferase reporter gene driven by a STAT-inducible promoter (Promega); host or cells: HEK293
T1 sequence (Q5VWK5 24-629): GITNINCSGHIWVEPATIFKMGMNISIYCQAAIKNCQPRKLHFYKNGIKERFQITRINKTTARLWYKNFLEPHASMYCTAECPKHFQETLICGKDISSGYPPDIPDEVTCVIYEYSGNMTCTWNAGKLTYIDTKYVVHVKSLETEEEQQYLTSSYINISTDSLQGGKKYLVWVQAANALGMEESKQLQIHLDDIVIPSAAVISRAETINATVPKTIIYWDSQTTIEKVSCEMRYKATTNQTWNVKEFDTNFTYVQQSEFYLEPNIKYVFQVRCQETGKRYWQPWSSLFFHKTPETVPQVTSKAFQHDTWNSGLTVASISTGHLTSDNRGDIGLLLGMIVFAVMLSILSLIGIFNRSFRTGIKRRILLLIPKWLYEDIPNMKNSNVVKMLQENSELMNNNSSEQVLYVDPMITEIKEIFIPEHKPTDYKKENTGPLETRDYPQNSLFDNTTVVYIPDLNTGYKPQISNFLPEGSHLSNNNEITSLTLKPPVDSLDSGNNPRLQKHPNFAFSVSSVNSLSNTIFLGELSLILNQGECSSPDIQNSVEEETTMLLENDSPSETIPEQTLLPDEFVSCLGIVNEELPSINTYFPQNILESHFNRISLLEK
Method: Compounds were serially diluted in 100% (v/v) DMSO) and plated using an Echo acoustic dispenser (Labcyte) into 1536-well non-treated black assay plates (Corning #9146). 3 μL of HEK293 cells containing IL-23R, IL-12Rβ1 and a firefly luciferase reporter gene driven by a STAT-inducible promoter (Promega) were added to the plates (4000 cells/well), followed by 3 μL of 10 ng/mL IL-23 (equivalent to EC90 concentration). After 5 h at 37° C., 5% CO2, 95% relative humidity, cells were placed at 20° C. and treated with BioGlo reagent (Promega) according to the Manufacturer's instructions. Luminescence was measured on a Pherastar FSX (BMG LabTech). Data were normalized to IL-23 treatment (0% inhibition) and 30 μM of control inhibitor (100% inhibition), and IC50 values were determined using a 4-parameter Hill equation.

| IC50 [nM] | SMILES |
| --- | --- |
| 50 to 500 | CC(=O)NCCCC[C@@H]1NC(=O)[C@H](Cc2c[nH]c3c(C)cccc23)NC(=O)[C@H]([C@@H](C)O)NC(=O)[C@H](CC(N)=O)NC(=O)[C@@H](NC(=O)[C@@H](CCCNC(=N)N)NC(C)=O)C(C)(C)SSC(C)(C)[C@@H](C(=O)N[C@@H](Cc2ccc(OCCCCC[N+](C)(C)C)cc2)C(=O)N[C@@H](Cc2ccc3ccccc3c2)C(=O)NC2(C(=O)N[C@@H](CCC(=O)O)C(=O)N[C@@H](CC(N)=O)C(=O)N[C@@H](Cc3cccnc3)C(=O)N(C)CC(=O)N[C@@H](CCCCNC(=O)COCCOCCNC(=O)COCCOCCNC(=O)CC[C@H](NC(=O)CCCCCCCCCCCCCCCCC(=O)O)C(=O)O)C(N)=O)CCOCC2)NC1=O [compound 69, MeCO-r-Pen(3)-N-T-7MeW-K(Ac)-Pen(3)-TMAPF-2Nal-THP-E-N-3Pya-Sar-K(PEG2PEG2C18OH)-CONH2] (Ac-[dR][Pen]NT[Trp(7-Me)]K(Ac)[Pen]Y(X1)[2Nal][Thp]EN[3Pal][Sar]K([AEEA-AEEA-γGlu-C18 diacid])-NH2; disulfide 2-7) |
| 50 to 500 | CC(=O)NCCCC[C@@H]1NC(=O)[C@H](Cc2c[nH]c3c(C)cccc23)NC(=O)[C@H]([C@@H](C)O)NC(=O)[C@H](CC(N)=O)NC(=O)[C@@H](NC(C)=O)C(C)(C)SSC(C)(C)[C@@H](C(=O)N[C@@H](Cc2ccc(OCCN)cc2)C(=O)N[C@@H](Cc2ccc3ccccc3c2)C(=O)NC2(C(=O)N[C@@H](CCC(=O)O)C(=O)N[C@@H](CC(N)=O)C(=O)N[C@@H](Cc3cccnc3)C(=O)N(C)CC(=O)NCCOCCOCCOCCOCCOCCOCCOCCOCCOCCOCCOCCOCCNC(=O)CC[C@H](NC(=O)CCCCCCCCCCCCCCCCC(=O)O)C(=O)O)CCOCC2)NC1=O [compound 135, MeCO-Pen(3)-N-T-7MeW-K(Ac)-Pen(3)-AEF-2Nal-THP-E-N-3Pya-Sar-CO(PEG12gEC18OH)] |
| ≥ 500 | CC(=O)N(C)CCCC[C@@H]1NC(=O)[C@H](Cc2c[nH]c3c(C)cccc23)NC(=O)[C@H]([C@@H](C)O)NC(=O)[C@H](CC(=O)N(C)C)NC(=O)[C@@H](NC(=O)[C@H](CCCCNC(=O)COCCOCCNC(=O)COCCOCCNC(=O)CC[C@H](NC(=O)CCCCCCCCCCCCCCCCC(=O)O)C(=O)O)NC(=O)CCOCCOCC[N+](C)(C)C)C(C)(C)SSC(C)(C)[C@@H](C(=O)N[C@@H](Cc2ccc(OCCN)cc2)C(=O)N[C@@H](Cc2ccc3ccccc3c2)C(=O)NC2(C(=O)N[C@@H](CCCCN(C)C(C)=O)C(=O)N[C@@H](CC(N)=O)C(=O)N[C@@H](Cc3cccnc3)C(=O)N(C)CC(N)=O)CCOCC2)NC1=O [compound 68, cPEG3aCO-K(PEG2PEG2gEC18OH)-Pen(3)-N(N(Me)2)-T-7MeW-K(NMeAc)-Pen(3)-AEF-2Nal-THP-K(NMeAc)-N-3Pya-Sar-CONH2] ({Me3N+(CH2)2O(CH2)2O(CH2)2CO}-K([AEEA-AEEA-γGlu-C18 diacid])[Pen]D(NMe2)T[Trp(7-Me)][Lys(Me)](Ac)[Pen][AEF][2Nal][Thp][Lys(Me)](Ac)N[3Pal][Sar]-NH2; disulfide 2-7) |
| 50 to 500 | CC(=O)NCCCC[C@@H]1NC(=O)[C@H](Cc2c[nH]c3c(C)cccc23)NC(=O)[C@H]([C@@H](C)O)NC(=O)[C@H](CC(N)=O)NC(=O)[C@@H](NC(C)=O)C(C)(C)SSC(C)(C)[C@@H](C(=O)N[C@@H](Cc2ccc(OCCN)cc2)C(=O)N[C@@H](Cc2ccc3ccccc3c2)C(=O)NC2(C(=O)N[C@@H](CCC(=O)O)C(=O)N[C@@H](CC(N)=O)C(=O)N[C@@H](Cc3cccnc3)C(=O)N(C)CC(=O)N[C@@H](CCCCNC(=O)COCCOCCNC(=O)COCCOCCNC(=O)CC[C@H](NC(=O)CCCCCCCCCCCCCCCCCCC(=O)O)C(=O)O)C(=O)NCCOCCOCC[N+](C)(C)C)CCOCC2)NC1=O [compound 93, MeCO-Pen(3)-N-T-7MeW-K(Ac)-Pen(3)-AEF-2Nal-THP-K(Ac)-N-3Pya-Sar-K(PEG2PEG2gEC20OH)-CONH(PEG3a)] |
| < 50 | CCCCCCCCCCCCCC(=O)N(C)CC(=O)N[C@@H](CO)C(=O)N(C)CC(=O)N[C@@H](CO)C(=O)N(C)CC(=O)N[C@@H](CO)C(=O)N(C)CC(=O)NCCCC[C@H](NC(=O)CN(C)C(=O)[C@H](Cc1cccnc1)NC(=O)[C@H](CC(N)=O)NC(=O)[C@H](CCC(=O)O)NC(=O)C1(NC(=O)[C@H](Cc2ccc3ccccc3c2)NC(=O)[C@H](Cc2ccc(OCCN)cc2)NC(=O)C2NC(=O)[C@H](CCCCNC(C)=O)NC(=O)[C@H](Cc3c[nH]c4c(C)cccc34)NC(=O)[C@H]([C@@H](C)O)NC(=O)[C@H](CC(N)=O)NC(=O)[C@@H](NC(C)=O)C(C)(C)SSC2(C)C)CCOCC1)C(N)=O (stereo partly drawn) [compound 1, MeCO-Pen(3)-N-T-7MeW-K(Ac)-Pen(3)-AEF-2Nal-THP-E-N-3Pya-Sar-K(Sar-S-Sar-S-Sar-S-Sar-C14)-CONH2] |
| < 50 | CC(=O)N(C)CCCC[C@@H]1NC(=O)[C@H](Cc2c[nH]c3c(C)cccc23)NC(=O)[C@H]([C@@H](C)O)NC(=O)[C@H](CC(=O)N(C)C)NC(=O)[C@@H](NC(=O)CCOCCOCCOCCOCCOCCOCCOCCOCCOCCOCCOCCOCCNC(=O)CC[C@H](NC(=O)CCCCCCCCCCCCCCCCCCC(=O)O)C(=O)O)C(C)(C)SSC(C)(C)[C@@H](C(=O)N[C@@H](Cc2ccc(OCCCCC[N+](C)(C)C)cc2)C(=O)N[C@@H](Cc2ccc3ccccc3c2)C(=O)NC2(C(=O)N[C@@H](CCCCN(C)C(C)=O)C(=O)N[C@@H](CC(N)=O)C(=O)N[C@@H](Cc3cccnc3)C(=O)N(C)CC(=O)N(C)C)CCOCC2)NC1=O [compound 94, HOC20gEPEG12CO-Pen(3)-N(N(Me)2)-T-7MeW-K(NMeAc)-Pen(3)-TMAPF-2Nal-THP-K(NMeAc)-N-3Pya-Sar-CON(Me)2] ({C20 diacid-γGlu-PEG12}-[Pen]D(NMe2)T[Trp(7-Me)][Lys(Me)](Ac)[Pen]Y(X1)[2Nal][Thp][Lys(Me)](Ac)N[3Pal][Sar]-NMe2; disulfide 1-6) |
| 50 to 500 | CC(=O)N[C@H](CCCNC(=N)N)C(=O)N[C@@H]1C(=O)N[C@@H](CC(N)=O)C(=O)N[C@@H]([C@@H](C)O)C(=O)N[C@@H](Cc2c[nH]c3c(C)cccc23)C(=O)N[C@@H](CCCCNC(=O)CCC(=O)N[C@H](CC(=O)O)C[N+](C)(C)C)C(=O)N[C@H](C(=O)N[C@@H](Cc2ccc(OCCN)cc2)C(=O)N[C@@H](Cc2ccc3ccccc3c2)C(=O)NC2(C(=O)N[C@@H](CCC(=O)O)C(=O)N[C@@H](CC(N)=O)C(=O)N[C@@H](Cc3cccnc3)C(=O)N(C)[C@@H](CCCCNC(=O)COCCOCCNC(=O)COCCOCCNC(=O)CC[C@H](NC(=O)CCCCCCCCCCCCCCCCC(=O)O)C(=O)O)C(N)=O)CCOCC2)C(C)(C)SSC1(C)C [compound 29, MeCO-r-Pen(3)-N-T-7MeW-K(D)-Pen(3)-AEF-2Nal-THP-E-N-3Pya-NMeK(PEG2PEG2gEC18OH)-CONH2] (Ac-[dR][Pen]NT[Trp(7-Me)]K([Suc-X2])[Pen][AEF][2Nal][Thp]EN[3Pal][NMeK]([AEEA-AEEA-γGlu-C18 diacid])-NH2; disulfide 2-7) |
| < 50 | CCCCCCCCCCCC(=O)N[C@@H](CCC(=O)NCCOCCOCC(=O)NCCOCCOCC(=O)N[C@H](CCCNC(=N)N)C(=O)N[C@H]1CCSC[C@@](C)(C(=O)N[C@@H](Cc2ccc(OCCN)cc2)C(=O)N[C@@H](Cc2ccc3ccccc3c2)C(=O)NC2(C(=O)N[C@@H](CCC(=O)O)C(=O)N[C@@H](CC(N)=O)C(=O)N[C@@H](Cc3cccnc3)C(=O)N(C)CC(N)=O)CCOCC2)NC(=O)[C@H](CCCCNC(C)=O)NC(=O)[C@H](Cc2c[nH]c3c(C)cccc23)NC(=O)[C@H]([C@@H](C)O)NC(=O)[C@H](CC(N)=O)NC1=O)C(=O)O [compound 6, C12gEPEG2PEG2CO-r-Abu(1)-N-T-7MeW-K(Ac)-aMeC(1)-AEF-2Nal-THP-E-N-ePya-Sar CONH2] ({Lauroyl-γGlu-AEEA-AEEA}-[dR][Abu(4-yl)]NT[Trp(7-Me)]K(Ac)[αMeC][AEF][2Nal][Thp]EN[3Pal][Sar]-NH2; thioether 2-7) |
| < 50 | CC(=O)N(C)CCCC[C@@H]1NC(=O)[C@H](Cc2c[nH]c3c(C)cccc23)NC(=O)[C@H]([C@@H](C)O)NC(=O)[C@H](CC(=O)N(C)C)NC(=O)[C@@H](NC(=O)COCCOCCNC(=O)COCCOCCNC(=O)CC[C@H](NC(=O)CCCCCCCCCCCCCCCCC(=O)O)C(=O)O)C(C)(C)SSC(C)(C)[C@@H](C(=O)N[C@@H](Cc2ccc(OCCOCCOCC[N+](C)(C)C)cc2)C(=O)N[C@@H](Cc2ccc3ccccc3c2)C(=O)NC2(C(=O)N[C@@H](CCCCN(C)C(C)=O)C(=O)N[C@@H](CC(N)=O)C(=O)N[C@@H](Cc3cccnc3)C(=O)N(C)CC(=O)N(C)C)CCOCC2)NC1=O [compound 155, HOC18gEPEG2PEG2CO-Pen(3)-N(N(Me)2)-T-7MeW-K(NMeAc)-Pen(3)-APEG3F-2Nal-THP-K(NMeAc)-N-3Pya-Sar-CON(Me)2] ({C18 diacid-γGlu-AEEA-AEEA}-[Pen]D(NMe2)T[Trp(7-Me)][Lys(Me)](Ac)[Pen]Y(CH2CH2OCH2CH2OCH2CH2NMe3+)[2Nal][Thp][Lys(Me)](Ac)N[3Pal][Sar]-NMe2; disulfide 1-6) |
